This test addresses DNA topoisomerase II (Homo sapiens) (UniProt P11388+Q02880). Briefly: Inhibitory activity against human DNA Topoisomerase-2, activity is expressed as relative DNA cleavage compared to Azatoxin by densitometric analysis; inactive. The class given is protein assay.

Activity calls are given as the source filed them. No cut-off for these calls is given here.

As to `COc1cc([C@@H]2c3[nH]c4ccccc4c3[C@@H](OC)[C@H]3COC(=O)N23)cc(OC)c1O`, the result was inactive.
Turning to `COc1cc(N[C@@H]2c3c([nH]c4ccccc34)[C@@H](c3cc(OC)c(O)c(OC)c3)N3C(=O)OC[C@H]23)ccc1O`, the outcome was inactive.
With `COc1cc([C@@H]2c3[nH]c4ccccc4c3[C@@H](Nc3cc(OC)c(OC)c(OC)c3)[C@H]3COC(=O)N23)cc(OC)c1O` the entry was “inactive”.

The record behind these values is ChEMBL document CHEMBL1129326, “Inhibition of DNA topoisomerase II by azaelliptitoxins functionalized in the variable substituent domain” (J Med Chem, 1996).
